Assays:
[1] = tested on: HCT116; test: cells; type: cell-based; conditions: Homo sapiens, HCT-116; HCT116, 72 h, Alamar Blue, assayed separately; read-out: Cytotoxicity (IC50)
Protocol: (§1) AlamarBlue Cytotoxicity Assay
(§2) MDA-MB-231, MCF-10A and HCT116. Viable cells were counted with a hemocytometer immediately before each experiment . Experiments were done in triplicate. First, 100 μL of MDA-MB-231 cells or MCF-10A cells at the density of 50,000 cells/mL was seeded in a 96-well plate (5,000 cells/well) and then incubated at 37 °C and 5% CO2 for 24 h. The compounds were dissolved in DMSO (dimethyl sulfoxide) to make drug stocks (10 mM). The stock solutions were diluted with the complete DMEM high glucose culture medium to make a series of gradient fresh working solutions right before each test. Subsequently, the cells were treated with 100 μL of the freshly made gradient working solution in a total volume of 200 μL/well for 72 h. After that, the media were discarded and 200 μL of the fresh complete medium containing 10% of AlamarBlue (resazurin) stock solution was added to each well. The plate was then incubated at 37 °C and 5% CO2 for another 3 h. Emission of each well at 620 nm was detected by a microplate reader (BioTek Synergy H1) at excitation 580 nm. For HCT116 WT and mutant lines, cells were seeded at 1000 cells/ well in complete McCoys medium. Compounds were diluted from a DMSO stock into culture medium as described above. Cells were treated for 96 h, then viability measured with AlamarBlue, detected using the conditions described but with a BMG Fluostar Optima Microplate Reader. The percentage of viability compared to the negative control (DMSO-treated cells) was determined. […]
HCT116 and HEK293T. Viable cells were counted using an automated cell counter (BioRad TC20) before each experiment. […] Emission of each well at 620 nm was detected by a microplate reader (Perkin Elmer EnSpire) at excitation 580 nm. The percentage of viability compared to the negative control (DMSO -treated cells) was determined. […]
Figure S1. […] (C) HCT116 colon carcinoma cells were treated with increasing concentrations of analogues 8, 14, 15, CT8, ipomoeassin F or carrier (0.1% DMSO) and cell viability was assessed at 72 h by the Alamar Blue assay (mean ± S.D., n = 4). […]

[2] = molecular target: T1, Sec61-mediated protein translocation (Canis lupus familiaris, UniProt P38377); test: In vitro translation and Sec61-dependent translocation into ER microsomes; type: biochemical, canine; conditions: type II membrane protein Ii, ER microsomes
T1 construct: ER microsomes derived from canine pancreas; from tissue; host or cells: canine pancreas ER microsomes (nuclease-treated)
From the text: In Vitro Membrane Translocation Assays.
Unless otherwise stated, all cDNAs are of human origin and as previously described: CytB5OPG2,16 GypC,17 ppαF (Saccharomyces cerevisiae),16 ppcecAOPG2 (Hyalophora cecropia),16 PPL (Bos Taurus),16 Sec61βOPG216 and VCAM1.17 Ii encodes residues 17 to 232 of the short form of human HLA class II histocompatibility antigen gamma chain (Ii; P04232, isoform 2). Linear DNA templates were generated by PCR and transcribed into RNA using T7 or SP6 polymerase (Promega).
In vitro translation and translocation into ER microsomes
Translation reactions (20 μL) were performed in nuclease-treated rabbit reticulocyte lysate (Promega) in the presence of EasyTag EXPRESS 35S Protein Labelling Mix containing [35S] methionine (Perkin Elmer) (0.533 MBq; 30.15 TBq/mmol). Amino acids minus methionine (Promega) were added to 25 µM each, […]
equivalent volume of DMSO, and nuclease-treated ER microsomes (from stock with OD280 = 44/mL) were added to 6.5% (v/v). Lastly, 10% volume of in vitro transcribed mRNA (from 200-1000 ng/μL stocks) encoding the relevant precursor protein was added and translation reactions performed for 20 min at 30°C. Following incubation with 0.1 mM puromycin for 5 min at 30°C to ensure translational termination and ribosome release, membrane-associated fractions were isolated by centrifugation through an 80 μL high-salt cushion (0.75 M sucrose, 0.5 M KOAc, 5 mM Mg(OAc)2, 50 mM Hepes-KOH, pH 7.9) at 100,000 x g for 10 min at 4°C in a TLA100 rotor (Beckmann). Membrane pellets were suspended directly in SDS (sodium dodecyl sulphate) sample buffer (0.02% bromophenol blue, 62.5 mM, 4% (w/v) SDS, 10% (v/v) glycerol, pH 7.6, 1 M dithiothreitol) and, where indicated, treated with 1,000 U of Endoglycosidase H (New England Biolabs) for 30 min at 37°C prior to analysis. All samples were denatured for 10 min at 70°C prior to resolution by SDS-PAGE (12% or 16% polyacrylamide gels, 120 V, 120 min), gels were fixed (20% MeOH, 10% AcOH) for 5 min, dried (BioRad gel dryer) for 2 h at 65°C and, following exposure to a phosphorimaging plate for 24-72 h, radiolabelled products were visualised using a Typhoon FLA-7000 (GE Healthcare).
Quantitative analysis of Ii membrane insertion was performed using AIDA v.5.0 (Raytest Isotopenmeβgeräte) whereby the ratio of the signal intensity for the 2Gly/0Gly forms was used as a read-out to estimate efficiency of integration into the ER membrane. This value was then expressed relative to the matched DMSO control in order to derive the mean relative ER insertion from three independent experiments (n=3). Statistical significance of the effectiveness of Ipom-F analogues (RM one-way ANOVA) was determined using Tukey’s multiple comparisons test. IC50 value estimates were determined using non-linear regression to fit data to a curve of variable slope (four parameters) using the least squares fitting method in which the bottom and top plateaus of the curve were defined as 0% and 100% respectively. The differences between the estimated IC50 values for the three compounds analysed were statistically significant (****) according to the extra-sum-of-squares F test. Statistical analyses and IC50 estimates were performed using Prism 7.0d (GraphPad) with statistical significance given as n.s., non - significant and ****, P < 0.0001.
U2-OS secNLuc-ATZ Secretion and Cell Viability Assays

[3] = tested on: HCT-116 cells; test: Metabolic labelling of nascent proteins in HCT116 cells; type: cell-based, human; conditions: HCT-116, 1 μM, 35S labelling
Protocol: Metabolic Labelling Assays in HCT116 Cells
HCT116 cells were counted using an automated cell counter (BioRad TC20) immediately prior to each experiment. 3 ml of HCT116 cells at a density of 0.166x10^6 cells/mL were seeded to 6-well plates (0.5x10^6 cells/well) and then incubated at 37 °C and 5% CO 2 for 24 h. The compounds were dissolved in DMSO to make drug stocks (10 mM). The stock solutions were diluted with DMEM high glucose culture medium lacking methionine and cysteine to make a fresh working solution immediately prior to each test. Cells were washed twice and 1ml of fresh DMEM lacking methionine and cysteine was added to each well.
Subsequently, the cells were treated with 250 µl of compound solutions in a total volume of 1 ,250 µl/well.
The plate was then incubated at 37 °C and 5% CO 2 for 30 min before 100 µCi 35S-labelled methionine/cysteine was added (Expre35s35s protein labelling mix). Plates were incubated for a further 30 min, then media collected and cells harvested by scraping after four washes in ice-cold PBS. Total protein was acquired by RIPA extraction from the cell pellet, cytoplasmic fraction was acquired by partial permeabilization of the outer cell membranes with 0.15% Digitonin followed by centrifugation, secreted proteins were acquired by TCA precipitation of the media. […]

[4] = tested on: A2780 human ovarian cancer cells; design: method as in PMID 15844934; conditions: read-out: IC50, proliferation of A2780 cells; cited from earlier work
[5] = tested on: MDA-MB-231; test: AlamarBlue cytotoxicity assay, MDA-MB-231; type: cell-based, human; conditions: MDA-MB-231, 72 h, AlamarBlue; read-out: Cytotoxicity (IC50)
Protocol: as §1
as §2, with “nm.” for “nm. For HCT116 WT and mutant lines, cells were seeded at 1000 cells/ well in complete McCoys medium. Compounds were diluted from a DMSO stock into culture medium as described above. Cells were treated for 96 h, then viability measured with AlamarBlue, detected using the conditions described but with a BMG Fluostar Optima Microplate Reader. The percentage of viability compared to the negative control (DMSO-treated cells) was determined.”
(§3) Microplate Reader. The percentage of viability compared to the negative control (DMSO-treated cells) […]
(§4) was determined. […]

[6] = tested on: MCF7; test: MTT cytotoxicity assay, MCF7; type: cell-based, human; conditions: MCF7, 72 h, MTT; read-out: Cytotoxicity (IC50)
Protocol: Two human breast cancer cell lines (MDA-MB-231 and MCF7) and one human breast non-tumorigenic epithelial cell line (MCF-10A) were maintained in a DMEM high glucose culture medium supplemented with 10% fetal bovine serum (FBS) and 2 mM L-glutamine. The cells were grown in a humidified atmosphere of 5% CO2 and 95% air at 37 °C . The culture medi um w as changed every 2–4 days depending on cell density. Cell cultures were passaged once a week using 0.125% trypsin-EDTA to detach the cells from culture flasks/dishes.
The human colorectal cancer cell line HCT116 was maintained in McCoy’s 5A (modified) medium supplemented with 10% fetal bovine serum (FBS). The human embryonic kidney (HEK293T and HEK293 FRT TRex) cell line was maintained in DMEM high glucose culture medium supplemented with 10% fetal bovine serum (FBS).
HepG2 cells were cultured in DMEM supplemented with 10% fetal bovine serum and 2 mM L-glutamine at 37°C under 5% CO2.
Viable cells were counted with a hemocytometer immediately before each experiment. Experiments were done in triplicate. First, 100 μL of MCF7 cells at the density of 50,000 cells/mL were seeded in a 96-well plate (5,000 cells/well), which was incubated at 37 °C and 5% CO2 atmosphere for 24 h. The compounds were dissolved in DMSO (dimethyl sulfoxide) to make drug stocks (10 mM). The stock solutions were diluted with the complete DMEM high glucose culture medium to make a series of gradient fresh working solutions right before each test. Subsequently, the cells were treated with 100 μL of the freshly made gradient working solution in a total volume of 200 μL/well for 72 h. After that, the media were discarded and 200 μL of the fresh complete medium containing 10% of MTT stock solution (5 mg/mL) was added to each well. The plate was then incubated at 37 °C and 5% CO2 for 3 h. Next, 180 μL of the medium was discarded from each well , and 180 μL of DMSO was added to each well to dissol ve formazan crystals. Absorbance of formazan was detected by a microplate reader (BioTek Synergy H1) at 570 nm with 650 nm as the reference wavelength. The percentage of viability compared to the negative control (DMSO-treated cells) was determined . GraphPad Prism 6 software was used to make a plot of %

[7] = tested on: MCF-10A; test: AlamarBlue cytotoxicity assay, MCF-10A; type: cell-based, human; conditions: 72 h
Protocol: as §1
as §2, with “nm.” for “nm. For HCT116 WT and mutant lines, cells were seeded at 1000 cells/ well in complete McCoys medium. Compounds were diluted from a DMSO stock into culture medium as described above. Cells were treated for 96 h, then viability measured with AlamarBlue, detected using the conditions described but with a BMG Fluostar Optima Microplate Reader. The percentage of viability compared to the negative control (DMSO-treated cells) was determined.”
as §3, §4

T1 sequence (P38377 whole entry): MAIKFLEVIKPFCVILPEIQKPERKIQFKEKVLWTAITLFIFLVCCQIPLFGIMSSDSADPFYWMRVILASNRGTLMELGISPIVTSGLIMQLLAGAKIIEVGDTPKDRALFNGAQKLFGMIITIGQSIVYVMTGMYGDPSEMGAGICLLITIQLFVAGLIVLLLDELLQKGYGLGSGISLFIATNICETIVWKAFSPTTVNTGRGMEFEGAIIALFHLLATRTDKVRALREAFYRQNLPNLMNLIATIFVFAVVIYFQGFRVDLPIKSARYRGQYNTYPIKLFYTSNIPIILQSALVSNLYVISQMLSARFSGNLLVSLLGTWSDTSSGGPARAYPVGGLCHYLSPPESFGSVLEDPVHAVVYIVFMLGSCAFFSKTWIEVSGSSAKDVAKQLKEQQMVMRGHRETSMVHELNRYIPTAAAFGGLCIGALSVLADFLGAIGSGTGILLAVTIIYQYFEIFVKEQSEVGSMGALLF
T1 sequence (P60467 whole entry, further chain): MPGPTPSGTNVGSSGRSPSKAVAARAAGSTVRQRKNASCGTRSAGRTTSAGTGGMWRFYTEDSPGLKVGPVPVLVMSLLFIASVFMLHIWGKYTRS
T1 sequence (P60058 whole entry, further chain): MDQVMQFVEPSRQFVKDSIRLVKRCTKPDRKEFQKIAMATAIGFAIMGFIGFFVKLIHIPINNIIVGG

## C/C=C(\C)C(=O)O[C@@H]1[C@@H](O)[C@@H]2O[C@H]3[C@H](O[C@@H](CCCCC)CCCCCCC(=O)CCC(=O)OC[C@@H](O2)[C@H]1OC(=O)CCc1ccccc1)O[C@H](C)[C@H](OC(C)=O)[C@@H]3O [compound 14]
[1]
  IC50: 1870 nM
[2]
  inhibition of Ii membrane insertion: far less effective inhibitor
[3]
  inhibition of production of secreted proteins compared with ipomoeassin F: less potently

## C/C=C(\C)C(=O)O[C@@H]1[C@@H](O)[C@@H]2O[C@H]3[C@H](O[C@@H](CCC)CCCCC[C@H](OC(C)=O)C(=O)CCC(=O)OC[C@@H](O2)[C@H]1OC(=O)/C=C/c1ccccc1)O[C@H](C)[C@H](OC(C)=O)[C@@H]3O [ipomoeassin D]
[4]
  IC50: 35 nM

## CCCCC[C@H]1CCCCCCC(=O)CCC(=O)OC[C@H]2O[C@@H](O[C@H]3[C@H](O1)O[C@H](C)[C@H](OC(C)=O)[C@@H]3O)[C@H](O)[C@@H](OC(=O)C(C)CC)[C@@H]2OC(=O)/C=C/c1ccccc1 (stereo partly drawn) [compound 15]
[1]
  IC50: 480 nM
[3]
  inhibition of production of secreted proteins compared with ipomoeassin F: less potently

## C/C=C(\C)C(=O)O[C@@H]1[C@@H](O)[C@@H]2O[C@H]3[C@H](O[C@@H](CCCCC)CCCCCCC(=O)CCC(=O)OC[C@@H](O2)[C@H]1OC(=O)/C=C/c1ccc(OCc2cn(CCOCCOCCOCCNS(=O)(=O)c4ccc(-c5c6ccc(=[N+](CC)CC)cc-6oc6cc(N(CC)CC)ccc56)c(S(=O)(=O)[O-])c4)nn2)cc1)O[C@H](C)[C@H](OC(C)=O)[C@@H]3O [compound 12]
[5]
  IC50: 253 nM
[6]
  IC50: 172 nM
[7]
  IC50: 134 nM
